Data as given in patent publication US20040121965A1, “Method of treating resistant tumors” (Wyeth Holdings Corporation, priority 2002, published 2004).

Legend:
[1] = tested on: KB-3-1; assay: Cell survival assay (SRB), KB-3-1; format: cell-based, human; settings: Homo sapiens, KB 3-1, KB-3-1 cells (paclitaxel-sensitive parent); read-out: In vitro IC50 (nM) KB-3-1
Excerpt: Cells lines with previously known mechanisms of resistance. […] Res. 8: 207-218,1996); KB-3-1 (parental derived from an epidermoid carcinoma), KB-8.5, KB-V1 (Akiyama S-I, Fojo A, Hanover J A, Pastan I, Gottesman M M. Isolation and genetic characterization of human KB cell lines resistant to multiple drugs. Somatic Cell Mol. Gen., 11: 117-126,1985; Shen D-W, Cardarelli C, Hwang J, Cornwell M, Richert N, Ishii S, Pastan I, Gottesman MM. […] J. Biol. Chem., 261: 7762-7770, 1986); and HL-60 (parental derived from human leukemia) and HL60/AR (McGrath T., Center M. S. Adriamycin resistance in HL60 cells in the absence of detectable P-glycoprotein. Biochem. Res. Commun., 145:1171-1176,1987); A549 and A549.EpoB40 (He L., Yang C.-P.H., Horwitz S. B. Mutations in p-tubulin map to domains involved in regulation of microtubule stability in epothilone-resistant cell lines. Molecular Cancer Therapeutics. 1: 3-10, 2001). HCT-15 human colon carcinoma and DLD-1 human colon carcinoma are obtained from American Tissue Culture Collection. The MX-1W carcinoma is a Wyeth variant orginally obtained as MX-1 breast carcinoma from the National Cancer Institute. Cell lines selected for resistance to Representative Example 129. KB-3-1 cells are selected for resistance to Example 129 by chronically exposing cells to increasing concentrations of Example 129.
2.2. Cell Survival Assay: Standard Pharmacological Test Procedure. The concentration of candidate inhibitor required to inhibit 50% of cell growth (IC50) is done according to previously reported methods. […] Compounds are serially diluted into media as 2× stocks and 100 μl added to cells in duplicate. Compounds are incubated with cells for 3 days. At the end of the incubation period the sulforhodamine B (SRB) assay, which measures protein content as an assessment of cell survival, is performed as described previously (Skehan P, Storeng R, Scudiero D, Monks A, McMahon J, Vistica D, Warren J T, Bokesch H, Kenney S, Boyd MR. New calorimetric cytotoxicity assay for anticancer-drug screening. J Natl Cancer Inst 1990 Jul 4;82(13):1107-12) with some modification as follows. For KB-3-1 cells with 20% FCS, media is gently decanted and replaced with 200 μl of serum-free media mixed with cold 50% TCA for a final concentration of 10% TCA. The plates are incubated for 1 hr at 4° C., followed by washing 5 times in cold distilled water, then air dried overnight. The fixed cells are stained for 10 min with 80 μl of 0.04% SRB solution prepared in 1% glacial acetic acid. Stain is discarded and plates washed 5 times in 1% glacial acetic acid, then air-dried until completely dry. Stained cell product is dissolved in 150 μl of 10 mM Trizma Base and placed on a shaker for 20 minutes until fully dissolved. Absorbance is read on a Victor V multi-label plate reader (Perkin Elmer, Gaithersburg, Md.).

[2] = tested on: KB-8-5 (MDR1+); assay: Cell survival assay (SRB), KB-8-5 (MDR1+); settings: for IC50: Homo sapiens, MDR1, read-out: In vitro IC50 (nM) KB85
[3] = tested on: KB-V1 (MDR1++); assay: Cell survival assay (SRB), KB-V1 (MDR1++); settings: for IC50: Homo sapiens, read-out: In vitro IC50 (nM) KBV1

Row | SMILES | IC50 [1] [nM] | Ratio KB85/KB [2] | IC50 [2] [nM] | Ratio KBV1/KB [3] | IC50 [3] [nM]
1 | CN[C@H](C(=O)N[C@H](C(=O)N(C)[C@H](/C=C(\C)C(=O)O)C(C)C)C(C)(C)C)C(C)(C)c1cc2ccccc2s1 [Example 28, 3-(1-Benzothien-2-yl)-N-methylvalyl-N^1-[(1S,2E)-3-carboxy-1-isopropyl-2-butenyl]-N^1,3-dimethyl-L-valinamide] | 2.55 | 1.8 | 4.6 | 54.4 | 139
2 | CN[C@H](C(=O)N[C@@H](CCc1ccccc1)C(=O)N(C)[C@H](/C=C(\C)C(=O)O)C(C)C)C(C)(C)c1ccccc1 [Example 89, (E ,4S)-2,5-Dimethyl-4-[methyl((2S)-2-{[(2S)-3-methyl-2-(methylamino)-3-phenylbutanoyl]amino}4-phenylbutanoyl)amino]-2-hexenoic Acid] | 180 | 1.5 | 274 | 16.6 | ≥ 3000
3 | CN[C@H](C(=O)N[C@H](C(=O)N(C)[C@H](/C=C(\C)C(=O)O)C(C)C)C(C)(C)SC)C(C)(C)c1ccc(OC)cc1 [Example 84, N,O,β,β-tetramethyl-L-tyrosyl-N^1-[(1S,2E)-3-carboxy-1-isopropyl-2-butenyl]-N^1-methyl-3-(methylsulfanyl)-L-valinamide] | 1.6 | 3.2 | 5.1 | 188.7 | 302
4 | CCOC(=O)/C(C)=C/[C@H](C(C)C)N(C)C(=O)[C@@H](NC(=O)[C@@H](NC)C(C)(C)c1ccc(C(C)(C)C)cc1)C(C)(C)C [Example 29, 4-tert-Butyl-N,β,β-trimethylphenylalanyl-N^1-[(1S,2E)-4-ethoxy-1-isopropyl-3-methyl-4-oxo-2-butenyl]-N^1,3-dimethyl-L-valinamide] | 35.4 | 10.7 | 380 | 84.7 | ≥ 3000
5 | CN[C@H](C(=O)N[C@H](C(=O)N(C)[C@H](/C=C(\C)C(=O)O)CC(C)C)C(C)(C)C)C(C)(C)c1ccccc1 [Example 92, 4-{[3,3-Dimethyl-2-(3-methyl-2-methylamino-3-phenyl-butyrylamino)-butyryl]-methyl-amino}-2,6-dimethyl-hept-2-enoic Acid] | 126 | 2.1 | 264 | 23.9 | ≥ 3000
6 | CN[C@H](C(=O)N[C@H](C(=O)N(C)[C@H](/C=C(\C)C(=O)N[C@@H](CCSC)C(=O)O)C(C)C)C(C)(C)C)C(C)(C)c1ccccc1 [Example 145, N,β,β-trimethyl-L-phenylalanyl-N 1-((1S,2E)4-{[(1S)-1-carboxy-3-(methylthio)propyl]amino}-1-isopropyl-3-methyl-4-oxobut-2-enyl)-N 1,3-dimethyl-L-valinamide] | 131 | 12.2 | 1600 | 22.9 | > 3000
7 | CN[C@H](C(=O)N[C@H](C(=O)N(C)[C@H](/C=C(\C)C(=O)O)C(C)C)C(C)(C)C)C(C)(C)c1ccc(C(C)(C)C)cc1 [Example 30, 4-tert-Butyl-N,β,β-trimethylphenylalanyl-N^1-[(1S,2E)-3-carboxy-1-isopropyl-2-butenyl]-N^1,3-dimethyl-L-valinamide] | 3 | 1.7 | 5.1 | 35.9 | 108
8 | CN[C@H](C(=O)N[C@H](C(=O)N[C@H](/C=C(\C)C(=O)O)C(C)C)C(C)C)C(C)(C)c1ccccc1.O=C(O)C(F)(F)F [Example 102, N,β,β-trimethyl-L-phenylalanyl-N^1-[(1S,2E)-3-carboxy-1-isopropylbut-2-enyl]-L-valinamide Trifluoroacetic Acid] | 371 | 1.7 | 618 | 8.1 | ≥ 3000
9 | CN[C@H](C(=O)N[C@H](C(=O)N(C)[C@H](/C=C(\C)C(=O)O)C(C)C)C(C)(C)S(C)(=O)=O)C(C)(C)c1ccccc1 [Example 81, N,β,β-trimethyl-L-phenylalanyl-N^1-[(1S,2E)-3-carboxy-1-isopropyl-2-butenyl]-N^1-methyl-3-(methylsulfonyl)-L-valinamide] | 178 | 3.3 | 589 | 16.9 | ≥ 3000
10 | C/C(=C\[C@H](C(C)C)N(C)C(=O)[C@@H](NC(=O)[C@@H](N)Cc1cccc2ccccc12)C(C)(C)C)C(=O)O [Example 130, (2E,4S)-4-[((2S)-2-{[(2S)-2-Amino-3-(1-naphthyl)propanoyl]amino}-3,3-dimethylbutanoyl)(methyl)amino]-2,5-dimethyl-2-hexenoic Acid] | 60.2 | 1.4 | 87 | 49.8 | ≥ 3000
11 | CCOC(=O)/C(C)=C/[C@H](C(C)C)N(C)C(=O)[C@@H](NC(=O)[C@@H](NC)C(C)(C)c1cccc(C)c1)C(C)(C)C [Example 7a, N,β,β,3-Tetramethyl-L-phenylalanyl-N^1-[(1S,2E)4-ethoxy-1-isopropyl-3-methyl-4-oxo-2-butenyl]-N^1,3-dimethyl-L-valinamide] | 21.9 | 24.0 | 525 | 110.0 | 2410
12 | CN[C@H](C(=O)N[C@H](C(=O)N(C)[C@H](/C=C(\C)C(=O)O)C(C)C)C(C)(C)F)C(C)(C)c1ccccc1 [Example 149, N,β,β-trimethyl-L-phenylalanyl-N^1-[(1S,2E)-3-carboxy-1-isopropylbut-2-enyl]-3-fluoro-N^1-methyl-L-valinamide] | 1.6 | 2.2 | 3.5 | – | 117
13 | CN[C@H](C(=O)N[C@H](C(=O)N(C)[C@H](/C=C(\C)C(=O)Nc1ccc(N=[N+]=[N-])cc1)C(C)C)C(C)(C)C)C(C)(C)c1ccccc1 [Example 111, N,β,β-trimethyl-L-phenylalanyl-N^1-{(1S,2E)-4-[(4-azidophenyl)amino]-1-isopropyl-3-methyl-4-oxo-2-butenyl}-N^1,3-dimethyl-L-valinamide] | 178 | 2.9 | 513 | 12.6 | 2240
14 | CCOC(=O)/C(C)=C/[C@H](C(C)C)N(C)C(=O)[C@@H](NC(=O)[C@H](NC)C(C)(C)c1ccccc1)C(C)(C)C [Example 135, Ethyl (E,4S)-4-[((2S)-3,3-dimethyl-2-{[(2R)-3-methyl-2-(methylamino)-3-phenylbutanoyl]amino}butanoyl)(methyl)amino]-2,5-dimethyl-2-hexenoate] | 909 | 2.3 | 2090 | 2.9 | 2640
15 | CCCC[C@@H](/C=C(\C)C(=O)O)N(C)C(=O)[C@@H](NC(=O)[C@@H](NC)C(C)(C)c1ccccc1)C(C)(C)C [Example 75, N,β,β-Trimethyl-L-phenylalanyl-N^1-[(1S,2E)-1-butyl-3-carboxybut-2-enyl]-N^1,3-dimethyl-L-valinamide] | 36 | 2.2 | 78 | 60.0 | 2130
